Where a name gives a salt, the structure may show the parent alone.
Target: T1, BACE-2 (Homo sapiens, UniProt Q9Y5Z0)
T1 construct: Recombinant BACE-2 (extracellular domain, expressed in baculovirus and purified using standard methods); made in house
T1 sequence (Q9Y5Z0 63-473 limits assumed): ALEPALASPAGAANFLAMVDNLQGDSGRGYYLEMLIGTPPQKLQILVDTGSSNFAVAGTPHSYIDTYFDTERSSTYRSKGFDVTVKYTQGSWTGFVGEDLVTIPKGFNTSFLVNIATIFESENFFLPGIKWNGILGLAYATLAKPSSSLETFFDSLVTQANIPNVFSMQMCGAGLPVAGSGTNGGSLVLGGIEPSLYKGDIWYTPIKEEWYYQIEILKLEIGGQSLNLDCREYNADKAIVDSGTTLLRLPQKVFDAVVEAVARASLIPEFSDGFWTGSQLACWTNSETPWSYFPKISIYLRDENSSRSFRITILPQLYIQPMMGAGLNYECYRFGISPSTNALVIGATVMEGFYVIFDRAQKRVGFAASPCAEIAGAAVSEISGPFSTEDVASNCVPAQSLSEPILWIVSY
Assay: assay for inhibition of BACE-2
Type: biochemical

| IC50 | SMILES |
| --- | --- |
| 82 nM | COc1cnc(C(=O)Nc2ccc(F)c([C@]3(C(F)F)COCC(N)=N3)c2)c(Cl)c1 [Example 161, 3-Chloro-5-methoxy-pyridine-2-carboxylic acid [3-((R)-5-amino-3-difluoromethyl-3,6-dihydro-2H-[1,4]oxazin-3-yl)-4-fluoro-phenyl]-amide] |
| > 10000 nM | NC1=N[C@@](c2cc(NC(=O)c3ccc(=O)[nH]c3)ccc2F)(C(F)F)COC1 [Example 162, 6-Oxo-1,6-dihydro-pyridine-3-carboxylic acid [3-((R)-5-amino-3-difluoromethyl-3,6-dihydro-2H-[1,4]oxazin-3-yl)-4-fluoro-phenyl]-amide hydrochloride] |
| 405 nM | NC1=N[C@@](c2cc(NC(=O)c3cc4cccn4cn3)ccc2F)(C(F)F)COC1 [Example 163, Pyrrolo[1,2-c]pyrimidine-3-carboxylic acid [3-((R)-5-amino-3-difluoromethyl-3,6-dihydro-2H-[1,4]oxazin-3-yl)-4-fluoro-phenyl]-amide] |
| 76 nM | CC#CCOc1cnc(C(=O)Nc2ccc(F)c([C@]3(C(F)F)COCC(N)=N3)c2)cn1 [Example 164, 5-But-2-ynyloxy-pyrazine-2-carboxylic acid [3-((R)-5-amino-3-difluoromethyl-3,6-dihydro-2H-[1,4]oxazin-3-yl)-4-fluoro-phenyl]-amide hydrochloride] |
| 5 nM | NC1=N[C@@](c2cc(NC(=O)c3ncc(Br)cc3N)ccc2F)(C(F)F)COC1 [Example 165, 3-Amino-5-bromo-pyridine-2-carboxylic acid [3-((R)-5-amino-3-difluoromethyl-3,6-dihydro-2H-[1,4]oxazin-3-yl)-4-fluoro-phenyl]-amide hydrochloride] |
| 378 nM | CCn1ccnc1C(=O)Nc1ccc(F)c([C@]2(C(F)F)COCC(N)=N2)c1 [Example 166, 1-Ethyl-1H-imidazole-2-carboxylic acid [3-((R)-5-amino-3-difluoromethyl-3,6-dihydro-2H-[1,4]oxazin-3-yl)-4-fluoro-phenyl]-amide hydrochloride] |
| 172 nM | C#CCOc1cnc(C(=O)Nc2ccc(F)c([C@]3(C(F)F)COCC(N)=N3)c2)cn1 [Example 167, 5-Prop-2-ynyloxy-pyrazine-2-carboxylic acid [3-((R)-5-amino-3-difluoromethyl-3,6-dihydro-2H-[1,4]oxazin-3-yl)-4-fluoro-phenyl]-amide hydrochloride] |
| 35 nM | Cc1nc(C(=O)Nc2ccc(F)c([C@]3(C(F)F)COCC(N)=N3)c2)c(N)o1 [Example 168, 5-Amino-2-methyl-oxazole-4-carboxylic acid [3-((R)-5-amino-3-difluoromethyl-3,6-dihydro-2H-[1,4]oxazin-3-yl)-4-fluoro-phenyl]-amide hydrochloride] |
| 4 nM | NC1=N[C@@](c2cc(NC(=O)c3ncc(Cl)cc3O)ccc2F)(C(F)F)COC1 [Example 169, 5-Chloro-3-hydroxy-pyridine-2-carboxylic acid [3-((R)-5-amino-3-difluoromethyl-3,6-dihydro-2H-[1,4]oxazin-3-yl)-4-fluoro-phenyl]-amide] |
| 2710 nM | CC(C)Oc1cnc(C(=O)Nc2ccc(F)c([C@]3(C(F)F)COCC(N)=N3)c2)cn1 [Example 170, 5-Isopropoxy-pyrazine-2-carboxylic acid [3-((R)-5-amino-3-difluoromethyl-3,6-dihydro-2H-[1,4]oxazin-3-yl)-4-fluoro-phenyl]-amide] |
| 200 nM | CCOc1cnc(C(=O)Nc2ccc(F)c([C@]3(C(F)F)COCC(N)=N3)c2)cn1 [Example 171, 5-Ethoxy-pyrazine-2-carboxylic acid [3-((R)-5-amino-3-difluoromethyl-3,6-dihydro-2H-[1,4]oxazin-3-yl)-4-fluoro-phenyl]-amide] |
| 7 nM | Cc1c(C(=O)Nc2ccc(F)c([C@]3(C(F)F)COCC(N)=N3)c2)oc2ccc(CN(C)C)cc12 [Example 172, 5-Dimethylaminomethyl-3-methyl-benzofuran-2-carboxylic acid [3-((R)-5-amino-3-difluoromethyl-3,6-dihydro-2H-[1,4]oxazin-3-yl)-4-fluoro-phenyl]-amide hydrochloride] |
| > 10000 nM | Cc1c(C(=O)Nc2ccc(F)c([C@]3(C(F)F)COCC(N)=N3)c2)nnn1C [Example 173, 1,5-Dimethyl-1H-[1,2,3]triazole-4-carboxylic acid [3-((R)-5-amino-3-difluoromethyl-3,6-dihydro-2H-[1,4]oxazin-3-yl)-4-fluoro-phenyl]-amide hydrochloride] |
| 276 nM | COc1cnc(C(=O)Nc2ccc(F)c([C@]3(C(F)F)COCC(N)=N3)c2)c(C)n1 [Example 174, 5-Methoxy-3-methyl-pyrazine-2-carboxylic acid [3-((R)-5-amino-3-difluoromethyl-3,6-dihydro-2H-[1,4]oxazin-3-yl)-4-fluoro-phenyl]-amide hydrochloride] |
| 111 nM | COc1cnc(C(=O)Nc2ccc(F)c([C@]3(C(F)F)COCC(N)=N3)c2)c(N)n1 [Example 175, 3-Amino-5-methoxy-pyrazine-2-carboxylic acid [3-((R)-5-amino-3-difluoromethyl-3,6-dihydro-2H-[1,4]oxazin-3-yl)-4-fluoro-phenyl]-amide hydrochloride] |
| 183 nM | Cc1cc(OC(F)F)cnc1C(=O)Nc1ccc(F)c([C@]2(C(F)F)COCC(N)=N2)c1 [Example 176, 5-Difluoromethoxy-3-methyl-pyridine-2-carboxylic acid [3-((R)-5-amino-3-difluoromethyl-3,6-dihydro-2H-[1,4]oxazin-3-yl)-4-fluoro-phenyl]-amide hydrochloride] |
| 37 nM | Cc1cc(OCF)cnc1C(=O)Nc1ccc(F)c([C@]2(C(F)F)COCC(N)=N2)c1 [Example 177, 5-Fluoromethoxy-3-methyl-pyridine-2-carboxylic acid [3-((R)-5-amino-3-difluoromethyl-3,6-dihydro-2H-[1,4]oxazin-3-yl)-4-fluoro-phenyl]-amide hydrochloride] |
| 2960 nM | COCCOc1cnc(C(=O)Nc2ccc(F)c([C@]3(C(F)F)COCC(N)=N3)c2)c(C)n1 [Example 178, 5-(2-Methoxy-ethoxy)-3-methyl-pyrazine-2-carboxylic acid [3-((R)-5-amino-3-difluoromethyl-3,6-dihydro-2H-[1,4]oxazin-3-yl)-4-fluoro-phenyl]-amide hydrochloride] |
| 270 nM | COc1cnc(C(=O)Nc2ccc(F)c([C@]3(C(F)F)COCC(N)=N3)c2)c(OC)c1 [Example 179, 3,5-Dimethoxy-pyridine-2-carboxylic acid [3-((R)-5-amino-3-difluoromethyl-3,6-dihydro-2H-[1,4]oxazin-3-yl)-4-fluoro-phenyl]-amide hydrochloride] |
| 1650 nM | COCCOc1ccc(C(=O)Nc2ccc(F)c([C@]3(C(F)F)COCC(N)=N3)c2)nc1 [Example 180, 5-(2-Methoxy-ethoxy)-pyridine-2-carboxylic acid [3-((R)-5-amino-3-difluoromethyl-3,6-dihydro-2H-[1,4]oxazin-3-yl)-4-fluoro-phenyl]-amide hydrochloride] |
| 6080 nM | COCCOc1cnc(C(=O)Nc2ccc(F)c([C@]3(C(F)F)COCC(N)=N3)c2)c(F)c1 [Example 181, 3-Fluoro-5-(2-methoxy-ethoxy)-pyridine-2-carboxylic acid [3-((R)-5-amino-3-difluoromethyl-3,6-dihydro-2H-[1,4]oxazin-3-yl)-4-fluoro-phenyl]-amide hydrochloride] |
| 171 nM | CC#CCOc1cnc(C(=O)Nc2ccc(F)c([C@]3(C(F)F)COCC(N)=N3)c2)c(C)n1 [Example 182, 5-But-2-ynyloxy-3-methyl-pyrazine-2-carboxylic acid [3-((R)-5-amino-3-difluoromethyl-3,6-dihydro-2H-[1,4]oxazin-3-yl)-4-fluoro-phenyl]-amide hydrochloride] |
| 4940 nM | COCc1cnc(C(=O)Nc2ccc(F)c([C@]3(C(F)F)COCC(N)=N3)c2)c(Cl)c1 [Example 183, 3-Chloro-5-methoxymethyl-pyridine-2-carboxylic acid [3-((R)-5-amino-3-di-fluoromethyl-3,6-dihydro-2H-[1,4]oxazin-3-yl)-4-fluoro-phenyl]-amide hydrochloride] |
| 47 nM | NC1=N[C@@](c2cc(NC(=O)c3ncc(OCF)cc3Cl)ccc2F)(C(F)F)COC1 [Example 184, 3-Chloro-5-fluoromethoxy-pyridine-2-carboxylic acid [3-((R)-5-amino-3-di-fluoromethyl-3,6-dihydro-2H-[1,4]oxazin-3-yl)-4-fluoro-phenyl]-amide hydrochloride] |
| 199 nM | NC1=N[C@@](c2cc(NC(=O)c3ncc(OC(F)F)cc3Cl)ccc2F)(C(F)F)COC1 [Example 185, 3-Chloro-5-difluoromethoxy-pyridine-2-carboxylic acid [3-((R)-5-amino-3-difluoromethyl-3,6-dihydro-2H-[1,4]oxazin-3-yl)-4-fluoro-phenyl]-amide hydrochloride] |
| 9110 nM | CN1CC(N)=NC(C)(c2cc(NC(=O)c3ccc(Br)cn3)ccc2F)C1=O (stereo not drawn) [Example 186, 5-Bromo-pyridine-2-carboxylic acid [3-(6-amino-2,4-dimethyl-3-oxo-2,3,4,5-tetrahydro-pyrazin-2-yl)-4-fluoro-phenyl]-amide] |
| 104 nM | CN1CC(N)=NC(C)(c2cc(NC(=O)c3ccc(Br)cn3)ccc2F)C1 (stereo not drawn) [Example 187, 5-Bromo-pyridine-2-carboxylic acid [3-(6-amino-2,4-dimethyl-2,3,4,5-tetrahydro-pyrazin-2-yl)-4-fluoro-phenyl]-amide] |
